Patent publication EP0753513A2, “Optically active triazole derivative, process for producing the same, antifungal agent, and use thereof” (NIHON NOHYAKU CO., LTD., priority 1995, dated 1997)

Experiments:
Candida albicans IFO1270 [1] = assay: Growth inhibition of Candida albicans in Sabouraud's glucose broth (Test Example 1); assay type: cell-based; conditions: two days incubation at 37°C under shaking; for Growth inhibition ratio 0.1 µg/ml (%): 0.1 µg/ml test compound; for Growth inhibition ratio 10 µg/ml (%): 10 µg/ml test compound
Method: Sabouraud's glucose broth (9.8 ml) was inoculated with 0.1 ml of Candida albicans IFO1270 (1.0×10^6 cells/ml). Then 0.1 ml of a solution of each test compound dissolved with dimethylsulfoxide in an appropriate concentration was added to give concentrations of 10 µg/ml and 0.1 µg/ml. Two days after incubating at 37°C under shaking, the growth inhibition ratio was measured. […]

Candida albicans IFO1270 [2] = assay: Survival of mice inoculated with Candida albicans after oral treatment (Test Example 2); assay type: in vivo; conditions: ddY mice; 0.5% aqueous CMC solution containing 0.02% of test compound, orally, 5 ml/kg once a day for 4 days; survival ratio on final day (10 days following inoculation)
Method: ddY mice aged 6 weeks were divided into a control group having 10 mice and test groups each having 5 mice. After inoculating with 4 ml/kg of Candida albicans IFO1270 (2.5×10^7 cells/ml), which had been incubated on Sabouraud's glucose agar medium at 37°C for 2 hours, a 0.5% aqueous CMC solution (containing 10% of polyethylene glycol 400 and 0.1% of Tween 80) containing 0.02% of each test compound was orally administered to the mice in a dose of 5 ml/kg once a day for 4 days. The viable […] were counted for 10 days following the inoculation and the survival ratio on the final day was calculated. […]

## C[C@@H](Cc1ccc(C#N)cc1)[C@](O)(Cn1cncn1)c1ccc(F)cc1F [Compound 7, (2R,3S)-4-(4-cyanophenyl)-2-(2,4-difluorophenyl)-3-methyl-1-(1H-1,2,4-triazol-1-yl)butan-2-ol]
Candida albicans IFO1270 [1]
  Growth inhibition ratio 0.1 µg/ml (%): 55%
  Growth inhibition ratio 10 µg/ml (%): 70%
Candida albicans IFO1270 [2]
  Survival ratio (%): 100%

## CC(=O)N1CCN(c2ccc(OC[C@H]3CO[C@](Cn4ccnc4)(c4ccc(Cl)cc4Cl)O3)cc2)CC1 (relative stereo) [A, Cis-1-acetyl-4-[4-[[2-(2,4-dichlorophenyl)-2-(imidazol-1-ylmethyl)-1-3-oxolan-4-yl]methoxy]phenyl]piperazine, reference compound]
Candida albicans IFO1270 [1]
  Growth inhibition ratio 0.1 µg/ml (%): 47%
  Growth inhibition ratio 10 µg/ml (%): 59%
Candida albicans IFO1270 [2]
  Survival ratio (%): 40%

## C[C@@H](Cc1ccc(F)cc1)[C@](O)(Cn1cncn1)c1ccc(F)cc1F [Compound 1, (2R,3S)-2-(2,4-difluorophenyl)-4-(4-fluorophenyl)-3-methyl-1-(1H-1,2,4-triazol-1-yl)butan-2-ol]
Candida albicans IFO1270 [1]
  Growth inhibition ratio 0.1 µg/ml (%): 48%
  Growth inhibition ratio 10 µg/ml (%): 64%
Candida albicans IFO1270 [2]
  Survival ratio (%): 80%

## C[C@@H](Cc1ccc(F)cc1F)[C@](O)(Cn1cncn1)c1ccc(F)cc1F [Compound 2, (2R,3S)-2,4-bis(2,4-difluorophenyl)-3-methyl-1-(1H-1,2,4-triazol-1-yl)butan-2-ol]
Candida albicans IFO1270 [1]
  Growth inhibition ratio 0.1 µg/ml (%): 51%
  Growth inhibition ratio 10 µg/ml (%): 66%
Candida albicans IFO1270 [2]
  Survival ratio (%): 60%
